The results in this text go back to BindingDB's records for patent US20260022118 (University of Texas System, 2026).

The experiment addresses GTPase NRas [G12D,C118S] (Homo sapiens, UniProt P01111, C118S/G12D). The experiment can be described thus: NRas G12D Surface Plasmon Resonance (SPR) Binding Assay. The protocol:
The assay was run at 25° C. with a data collection rate of 10 Hz. All samples were flowed over both a reference surface and an active surface. Samples were injected for 30 s, with a dissociation time length of 120 s, at a flow rate of 100 μL/min and followed by an extra wash with 50% DMSO and a carry-over control injected at 40 μL/min for 30 s. Ten startup cycles were performed at the beginning of the assay. Solvent correction samples were injected once in the middle of the assay, and once at the end. A control sample of 10 μM control compound was injected between two negative control injections (1.0× running buffer containing 3% DMSO) every thirty cycles, to periodically assess NRAS surface stability. Assay was allowed to run for approximately 20-24 hours due to loss of activity of the protein surface over time. Data was analyzed using the Biacore™ S200 Evaluation Software, and all data was fit using a 1:1 kinetic binding model or steady-state fitting, as appropriate.

GTPase NRas [G12D,C118S], sequence (P01111 whole entry G12D/C118S, looked up): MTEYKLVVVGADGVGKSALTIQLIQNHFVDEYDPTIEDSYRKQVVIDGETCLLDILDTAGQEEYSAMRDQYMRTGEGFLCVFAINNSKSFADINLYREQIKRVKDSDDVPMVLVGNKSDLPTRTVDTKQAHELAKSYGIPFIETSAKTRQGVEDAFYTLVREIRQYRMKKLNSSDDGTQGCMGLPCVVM

Take `C#Cc1c(F)ccc2cc(O)cc(-c3nc(C(C)=O)c4c([C@H]5[C@@H]6CNC[C@@H]65)nn(C5CC5)c4c3F)c12` [US20260022118, Example 84]: the Kd came out at 119 nM.

As a reminder, the Kd is the free concentration of one partner at which half of the binding sites on the other are occupied at equilibrium, for simple one-to-one binding.
